Data taken from PubChem BioAssay AID1963424 (Molecular Pharmacology Branch, DTP, NCI, 2024).

System: 327498-153-R-J2-PDC complex spheroid growth, % test/control
Test: Anticancer human tumor 327498-153-R-J2-PDC patient-derived uterine carcinosarcoma cell line growth inhibition [Asc]
Conditions: for IC50: curve of first compound; for viability, T/C: stronger effect = lower value
How it was run: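 Stromal components (HUVEC and hMSC) are co-assembled with the cancer cells into multicellular spheroids. Drugs are then added singly or paired, at concentrations falling by half-log increments from a clinically achievable maximum, capped at 10 microM without known Cmax.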

[1] = second compound 0.01 µM, first compound 0.0316 µM
[2] = second compound 0.01 µM, first compound 0.1 µM
[3] = second compound 0.01 µM, first compound 0.316 µM
[4] = second compound 0.01 µM, first compound 1 µM
[5] = second compound 0.01 µM, first compound 3.16 µM
[6] = second compound 0.01 µM, first compound 10 µM
[7] = second compound 0.0316 µM, first compound 0.0316 µM
[8] = second compound 0.0316 µM, first compound 0.1 µM
[9] = second compound 0.0316 µM, first compound 0.316 µM
[10] = second compound 0.0316 µM, first compound 1 µM
[11] = second compound 0.0316 µM, first compound 3.16 µM
[12] = second compound 0.0316 µM, first compound 10 µM
[13] = second compound 0.1 µM, first compound 0.0316 µM
[14] = second compound 0.1 µM, first compound 0.1 µM
[15] = second compound 0.1 µM, first compound 0.316 µM
[16] = second compound 0.1 µM, first compound 1 µM
[17] = second compound 0.1 µM, first compound 3.16 µM
[18] = second compound 0.1 µM, first compound 10 µM
[19] = second compound 0.316 µM, first compound 0.0316 µM
[20] = second compound 0.316 µM, first compound 0.1 µM
[21] = second compound 0.316 µM, first compound 0.316 µM
[22] = second compound 0.316 µM, first compound 1 µM
[23] = second compound 0.316 µM, first compound 3.16 µM
[24] = second compound 0.316 µM, first compound 10 µM
[25] = second compound 1 µM, first compound 0.0316 µM
[26] = second compound 1 µM, first compound 0.1 µM
[27] = second compound 1 µM, first compound 0.316 µM
[28] = second compound 1 µM, first compound 1 µM
[29] = second compound 1 µM, first compound 3.16 µM
[30] = second compound 1 µM, first compound 10 µM
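Also: spheroids exposed to compound for 7 days after 3 days of growth.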
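For viability, T/C in this document: 100% = DMSO vehicle control wells.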

SMILES: C#Cc1c(F)ccc2cc(O)cc(-c3ncc4c(N5CC6CCC(C5)N6)nc(OCC56CCCN5CC(F)C6)nc4c3F)c12 (stereo not given) + CNC(C)C(=O)NC1CN(S(=O)(=O)c2cccc(S(=O)(=O)N3CCC4CCC(C(=O)NC(c5ccccc5)c5ccccc5)N4C(=O)C(NC(=O)C(C)NC)C3)c2)CCC2CCC(C(=O)NC(c3ccccc3)c3ccccc3)N2C1=O
- IC50 (second compound 0.01 µM): > 10000 nM
- IC50 (second compound 0.0316 µM): > 10000 nM
- IC50 (second compound 0.1 µM): > 10000 nM
- IC50 (second compound 0.316 µM): > 10000 nM
- IC50 (second compound 1 µM): > 10000 nM
- viability, T/C [1]: 102%
- viability, T/C [2]: 97.8%
- viability, T/C [3]: 95.8%
- viability, T/C [4]: 88.6%
- viability, T/C [5]: 68.8%
- viability, T/C [6]: 53%
- viability, T/C [7]: 103%
- viability, T/C [8]: 97.3%
- viability, T/C [9]: 102%
- viability, T/C [10]: 77%
- viability, T/C [11]: 61.9%
- viability, T/C [12]: 55.1%
- viability, T/C [13]: 103%
- viability, T/C [14]: 95.4%
- viability, T/C [15]: 97.5%
- viability, T/C [16]: 82.8%
- viability, T/C [17]: 69.4%
- viability, T/C [18]: 61.9%
- viability, T/C [19]: 106%
- viability, T/C [20]: 104%
- viability, T/C [21]: 92.4%
- viability, T/C [22]: 82.3%
- viability, T/C [23]: 74.5%
- viability, T/C [24]: 55.6%
- viability, T/C [25]: 96.3%
- viability, T/C [26]: 96.1%
- viability, T/C [27]: 97%
- viability, T/C [28]: 84.9%
- viability, T/C [29]: 74%
- viability, T/C [30]: 67%

SMILES: C=C(F)C(=O)N1CCN(c2nc(OCC3CCCN3C)nc3c2CCN(c2cccc4cccc(Cl)c24)C3)CC1CC#N (stereo not given) + CNC(C)C(=O)NC1CN(S(=O)(=O)c2cccc(S(=O)(=O)N3CCC4CCC(C(=O)NC(c5ccccc5)c5ccccc5)N4C(=O)C(NC(=O)C(C)NC)C3)c2)CCC2CCC(C(=O)NC(c3ccccc3)c3ccccc3)N2C1=O
- IC50 (second compound 0.01 µM): 1310 nM
- IC50 (second compound 0.0316 µM): 1180 nM
- IC50 (second compound 0.1 µM): 1350 nM
- IC50 (second compound 0.316 µM): 1200 nM
- IC50 (second compound 1 µM): 985 nM
- viability, T/C [1]: 74.3%
- viability, T/C [2]: 71%
- viability, T/C [3]: 58.4%
- viability, T/C [4]: 61.6%
- viability, T/C [5]: 14.5%
- viability, T/C [6]: 0.14%
- viability, T/C [7]: 73.2%
- viability, T/C [8]: 71.6%
- viability, T/C [9]: 64.5%
- viability, T/C [10]: 56.8%
- viability, T/C [11]: 16.2%
- viability, T/C [12]: 0.14%
- viability, T/C [13]: 76%
- viability, T/C [14]: 67.6%
- viability, T/C [15]: 74.3%
- viability, T/C [16]: 62.6%
- viability, T/C [17]: 14.1%
- viability, T/C [18]: 0.13%
- viability, T/C [19]: 75.3%
- viability, T/C [20]: 74.7%
- viability, T/C [21]: 66%
- viability, T/C [22]: 58.1%
- viability, T/C [23]: 11.2%
- viability, T/C [24]: 0.14%
- viability, T/C [25]: 86%
- viability, T/C [26]: 78.8%
- viability, T/C [27]: 66.3%
- viability, T/C [28]: 55.5%
- viability, T/C [29]: 15%
- viability, T/C [30]: 0.21%
